Assays:
Type in all cases: in vivo, BALB/c mice
[1] = test system: WBC cells, eosinophils, neutrophils, lymphocytes and monocytes in BALF; assay: Blood cell analysis in BALF of mice with OVA-induced asthma; settings: for proliferation of leukocytes, neutrophils, lymphocytes and monocytes in BALF and serum: summary statement, ovalbumin-induced asthma
Description: This experiment was performed in order to examine the anti-asthmatic effects of fatty acids after inducing asthma in experimental animals by ovalbumin (OVA). Experimental animals used in the experiment were chosen because of the accumulated abundant test data and their ease of analysis and evaluation of experimental results. BALB/c mice, which are specific pathogen […] (SPF) mice, were chosen based on the related literature. Experimental animals were provided in the minimum number so as to be able to analyze experimental results and were divided into a total of 9 groups according to the substance to be administered, and each group consisted of 8 animals. […] In test groups, the animals determined to be healthy during the acclimation period were ranked by measuring the weight, and were randomly grouped so that the average weight of each group was uniform. The animals were divided into a total of 9 groups: a control group; a control group with OVA-induced asthma; a positive control group; groups administered with each of 50 mg/kg, 125 mg/kg and 250 mg/kg of oleic acid; and groups administered with each of 5 mg/kg, 25 mg/kg and 50 mg/kg of palmitic acid. The animals were sensitized via intraperitoneal injection of OVA once a week for 2 weeks after the acclimation period. During 5 days of week 3, dexamethasone (DEX) and the test substances oleic acid and palmitic acid were orally administered in the morning and 5% OVA solution was inhaled in the afternoon. The test substance was orally administered in an amount of 28 μL per weight (g) of the experimental animal, and OVA for sensitization was administered in a constant amount regardless of the weight. After 5 days of administration, autopsy was performed the next day. Intraperitoneal administration: based on the related literature, 20 μg OVA+1 mg aluminum hydroxide+500 μL/head of normal saline were administered. For a total of 50 animals to be administered, 1000 μg OVA+50 mg aluminum hydroxide+25 mL of normal saline were prepared. The animals were sensitized by intraperitoneal injection once a week for 2 weeks, and injected with the test substance by a 1 mL syringe. Oral administration: the control group and the asthma-induced control group were administered with saline, and oleic acid and palmitic acid were used in dissolved in saline at various concentrations. Dexamethasone was dissolved in saline by stirring and prepared according to a final dose. All preparations were prepared on the day of administration. Inhalation: a solution containing 1 g OVA+20 mL normal saline (5% OVA solution) was prepared, stirred and administered. A forced inhalation was performed using a nebulizer (OMRON, NE-U17) for 5 days, and systemic exposure was performed using an inhalation exposure chamber. Collection of bronchoalveolar lavage fluid (BALF): the anesthetized animal tissue was opened with tweezers to secure the trachea, and then a surgical thread was placed underneath and loosely tied, and the trachea was slightly cut with scissors. Then, 0.2 mL of PBS was placed into a syringe with the needle removed, and the syringe was inserted into a sonde and then injected into the trachea. After injection, BALF was collected by injecting PBS again. 0.2 mL of BALF was collected three times in the same manner. The first BALF was placed in tube No. 1, the second and third BALFs were placed in tube No. 2. The blood cell analysis in BALF were performed (Lee et al., 2017; Bang et al., 2015). One day after the final treatment, the mice were anesthetized with intraperitoneal injections of 50 mg/kg Zoletin (Virbac, Fort Worth, Tex., USA), and their tracheas were cannulated with disposable animal feeding needles. Lavages were performed with three 0.4 ml aliquots of cold phosphate-buffered saline (PBS). The BALF samples were collected and immediately centrifuged at 3000 rpm for 5 minutes at 4° C. (Sorvall Legend Micro 17R, Thermo Fisher Scientific, Inc. Marietta, Ohio, USA). […]

[2] = test system: IL-4; assay: ELISA analysis in lung tissue, OVA-induced asthma; settings: palmitic acid 5, 25, 50 mg/kg oral, particularly the 50 mg/kg group, FIG. 22
Description: (§1) In test groups, the animals determined to be healthy during the acclimation period were ranked by measuring the weight, and were randomly grouped so that the average weight of each group was uniform. The animals were divided into a total of 9 groups: a control group; a control group with OVA-induced asthma; a positive control group; groups administered with each of 50 mg/kg, 125 mg/kg and 250 mg/kg of oleic acid; and groups administered with each of 5 mg/kg, 25 mg/kg and 50 mg/kg of palmitic acid. The animals were sensitized via intraperitoneal injection of OVA once a week for 2 weeks after the acclimation period. During 5 days of week 3, dexamethasone (DEX) and the test substances oleic acid and palmitic acid were orally administered in the morning and 5% OVA solution was inhaled in the afternoon. The test substance was orally administered in an amount of 28 μL per weight (g) of the experimental animal, and OVA for sensitization was administered in a constant amount regardless of the weight. After 5 days of administration, autopsy was performed the next day. To analyze the levels of IFN-γ, IL-12p40, IL-4, IL-5, IL-6, and TNF-α in lung tissue, OptEIA mouse ELISAs were purchased from BD Biosciences. The IL-13 levels were assessed using the AbFrontier Cymax mouse FT ISA kit (AbFrontier, Seoul, Korea). All assays were performed according to the manufacturers' guidelines. All lung samples were prepared by a lysis buffer made with a protease inhibitor cocktail and an RIPA buffer (Thermo Fisher Scientific). Aliquots of lung tissue from all groups were weighed and homogenized with lysis buffer. They were then centrifuged at 8,200 rpm for 15 minutes, and the supernatants were harvested and measured using a microplate reader (EZ Read 400, Biochrom, Cambourne, UK).

[3] = test system: IL-13; assay: ELISA analysis in lung tissue, OVA-induced asthma; settings: palmitic acid 5, 25, 50 mg/kg oral, particularly the 50 mg/kg group, FIG. 24
Description: as §1

[4] = test system: IFN-γ; assay: ELISA analysis in lung tissue, OVA-induced asthma; settings: palmitic acid 5, 25, 50 mg/kg oral, vs OVA, FIG. 20
Description: as §1

[5] = test system: IL-6; assay: ELISA analysis in lung tissue, OVA-induced asthma; settings: palmitic acid 5, 25, 50 mg/kg oral, particularly the 50 mg/kg group
Description: as §1

[6] = test system: IL-5; assay: ELISA analysis in lung tissue, OVA-induced asthma; settings: palmitic acid 5, 25, 50 mg/kg oral, particularly the 5 mg/kg group, FIG. 23
Description: as §1

[7] = test system: IL-12p40; assay: ELISA analysis in lung tissue, OVA-induced asthma; settings: palmitic acid 5, 25, 50 mg/kg oral, particularly the 25 mg/kg group, FIG. 21
Description: as §1

[8] = test system: TNF-α; assay: ELISA analysis in lung tissue, OVA-induced asthma; settings: palmitic acid 5, 25, 50 mg/kg oral, particularly the 50 mg/kg group, FIG. 25
Description: as §1

Row | Compound | number of differential cells in BALF ([1]; oleic acid 50, 125, 250 mg/kg oral, 5 days, FIG. 1) | number of WBC cells ([1]; oleic acid 50, 125, 250 mg/kg oral, 5 days, vs OVA-sensitized group, FIG. 2) | number of eosinophils (EOs) ([1]; oleic acid 50, 125, 250 mg/kg oral, 5 days, vs OVA-sensitized group, FIG. 3) | number of neutrophils (NEs) ([1]; oleic acid 50, 125, 250 mg/kg oral, 5 days, vs OVA-sensitized group, FIG. 4) | number of lymphocytes (LYs) ([1]; oleic acid 50, 125, 250 mg/kg oral, 5 days, vs OVA-sensitized group, FIG. 5) | number of monocytes (MOs) ([1]; oleic acid 50, 125, 250 mg/kg oral, 5 days, vs OVA-sensitized group, FIG. 6) | proliferation of leukocytes, neutrophils, lymphocytes and monocytes in BALF and serum [1] | number of differential cells in BALF ([1]; palmitic acid 5, 25, 50 mg/kg oral, 5 days, FIG. 7) | number of WBC cells ([1]; palmitic acid 5, 25, 50 mg/kg oral, 5 days, vs OVA-sensitized group, FIG. 8) | number of neutrophils (NEs) ([1]; palmitic acid 5, 25, 50 mg/kg oral, 5 days, vs OVA-sensitized group, FIG. 10) | number of monocytes (MOs) ([1]; palmitic acid 5, 25, 50 mg/kg oral, 5 days, vs OVA-sensitized group, FIG. 12) | expression level of IL-4 [2] | expression level of IL-13 [3] | expression level of IFN-γ [4] | expression level of IL-6 [5] | expression level of IL-5 [6] | expression level of IL-12p40 [7] | expression level of TNF-α [8]
1 | CCCCCCCC/C=C\CCCCCCCC(=O)O [oleic acid] | dose-dependently decreased | dose-dependently decreased | dose-dependently decreased | dose-dependently decreased | dose-dependently decreased | dose-dependently decreased | inhibit | – | – | – | – | – | – | – | – | – | – | –
2 | CCCCCCCCCCCCCCCC(=O)O [palmitic acid] | – | – | – | – | – | – | inhibit | dose-dependently decreased | dose-dependently decreased | dose-dependently decreased | dose-dependently decreased | decreased | decreased | dose-dependently decreased | decreased | decreased | decreased | decreased

Reference: patent US20200246298A1, “Composition for Preventing or Treating Asthma Comprising Fatty Acid as Active Ingredient” (Dongshin University Industry-Academy Cooperation, priority 2019, published 2020)
